Measurements published in patent US20090299044A1 (priority 2006, published 2009).
Bridge positions count the residues as written; N and C are the ends. Peptide text beside a SMILES is read from it.

Experiments:
human Kv1.3 (CHO) = target: T1, human Kv1.3 (CHO) (Homo sapiens, UniProt P22001); experiment: cell-based
T1 construct: expressed in transfected cells; host or cells: CHO

human Kv1.1 (HEK293) = target: T2, human Kv1.1 (HEK293) (Homo sapiens, UniProt Q09470); experiment: cell-based
T2 construct: expressed in transfected cells; host or cells: HEK293
T2 sequence (Q09470 whole entry): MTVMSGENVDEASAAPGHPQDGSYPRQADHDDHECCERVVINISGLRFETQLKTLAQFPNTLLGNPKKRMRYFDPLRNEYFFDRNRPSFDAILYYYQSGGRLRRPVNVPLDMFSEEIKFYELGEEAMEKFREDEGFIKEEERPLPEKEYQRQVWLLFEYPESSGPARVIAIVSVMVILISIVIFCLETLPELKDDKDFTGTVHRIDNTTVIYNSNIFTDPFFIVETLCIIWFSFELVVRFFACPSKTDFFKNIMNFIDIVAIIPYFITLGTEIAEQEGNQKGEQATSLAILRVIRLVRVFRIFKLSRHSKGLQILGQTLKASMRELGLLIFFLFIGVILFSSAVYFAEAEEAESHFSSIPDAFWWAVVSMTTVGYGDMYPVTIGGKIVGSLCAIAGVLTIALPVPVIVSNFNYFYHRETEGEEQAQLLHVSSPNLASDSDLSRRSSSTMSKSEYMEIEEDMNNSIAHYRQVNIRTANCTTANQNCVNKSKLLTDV

T1 sequence (P22001 whole entry): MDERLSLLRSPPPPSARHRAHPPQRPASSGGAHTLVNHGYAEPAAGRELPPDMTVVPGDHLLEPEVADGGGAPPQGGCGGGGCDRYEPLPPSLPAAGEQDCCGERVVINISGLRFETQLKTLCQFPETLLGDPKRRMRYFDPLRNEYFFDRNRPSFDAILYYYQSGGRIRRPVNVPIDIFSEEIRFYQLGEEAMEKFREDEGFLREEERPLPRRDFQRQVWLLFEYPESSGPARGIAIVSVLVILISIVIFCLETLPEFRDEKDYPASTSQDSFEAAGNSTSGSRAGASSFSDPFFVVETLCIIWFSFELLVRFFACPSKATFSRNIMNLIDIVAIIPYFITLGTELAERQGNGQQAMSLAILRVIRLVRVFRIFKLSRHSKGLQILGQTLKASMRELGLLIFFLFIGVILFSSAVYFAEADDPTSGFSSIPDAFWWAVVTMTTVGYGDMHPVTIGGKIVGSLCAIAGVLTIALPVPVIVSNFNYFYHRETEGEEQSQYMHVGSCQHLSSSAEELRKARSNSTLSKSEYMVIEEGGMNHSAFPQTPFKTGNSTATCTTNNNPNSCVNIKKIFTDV

SMILES: CC[C@H](C)[C@@H]1NC(=O)[C@H](CCCCN)NC(=O)[C@@H](NC(=O)[C@H](CCCCN)NC(=O)[C@@H](NC(=O)[C@H](CC(N)=O)NC(=O)[C@@H](NC(=O)[C@@H](NC(=O)[C@@H](NC(=O)CN)C(C)C)[C@@H](C)CC)[C@@H](C)CC)C(C)C)CSSC[C@@H]2NC(=O)[C@H](CCCCN)NC(=O)CNC(=O)[C@H](CCCNC(=N)N)NC(=O)[C@H](CCCNC(=N)N)NC(=O)[C@H](CCSC)NC(=O)CNC(=O)[C@H](C)NC(=O)[C@H](CCCCN)NC(=O)[C@H](CCCCN)NC(=O)[C@@H]3CSSC[C@@H](C(=O)N[C@H](C(=O)N4CCC[C@H]4C(=O)N[C@@H](CCCCN)C(=O)O)[C@@H](C)O)NC(=O)[C@H](Cc4c[nH]cn4)NC(=O)[C@H](CSSC[C@H](NC(=O)[C@H](CCC(N)=O)NC(=O)[C@H](CCCNC(=N)N)NC(=O)[C@H](CO)NC1=O)C(=O)N[C@@H](CC(C)C)C(=O)N[C@@H](CCC(=O)O)C(=O)N1CCC[C@H]1C(=O)N3)NC(=O)[C@H](CCCCN)NC(=O)CNC(=O)[C@H](CC(N)=O)NC(=O)[C@H](CCSC)NC2=O [F25R] (H-GVIINVKCKISRQCLEPCKKAGMRRGKCMNGKCHCTPK-OH; disulfide 8-28, 14-33, 18-35)
- IC50 (human Kv1.3 (CHO)): > 3.33 nM
- IC50 (human Kv1.1 (HEK293)): 0.817 nM

SMILES: CC[C@H](C)[C@@H]1NC(=O)[C@H](CCCCN)NC(=O)[C@@H](NC(=O)[C@H](CCCCN)NC(=O)[C@@H](NC(=O)[C@H](CC(N)=O)NC(=O)[C@@H](NC(=O)[C@@H](NC(=O)[C@@H](NC(=O)[C@H](C)N)C(C)C)[C@@H](C)CC)[C@@H](C)CC)C(C)C)CSSC[C@@H]2NC(=O)[C@H](CCCCN)NC(=O)CNC(=O)[C@H](Cc3ccccc3)NC(=O)[C@H](CCCNC(=N)N)NC(=O)[C@H](CCSC)NC(=O)CNC(=O)[C@H](C)NC(=O)[C@H](CCCCN)NC(=O)[C@H](CCCCN)NC(=O)[C@@H]3CSSC[C@@H](C(=O)N[C@H](C(=O)N4CCC[C@H]4C(=O)N[C@@H](CCCCN)C(=O)O)[C@@H](C)O)NC(=O)[C@H](Cc4c[nH]cn4)NC(=O)[C@H](CSSC[C@H](NC(=O)[C@H](CCC(N)=O)NC(=O)[C@H](CCCNC(=N)N)NC(=O)[C@H](CO)NC1=O)C(=O)N[C@@H](CC(C)C)C(=O)N[C@@H](CCC(=O)O)C(=O)N1CCC[C@H]1C(=O)N3)NC(=O)[C@H](CCCCN)NC(=O)CNC(=O)[C@H](CC(N)=O)NC(=O)[C@H](CCSC)NC2=O [G1A] (H-AVIINVKCKISRQCLEPCKKAGMRFGKCMNGKCHCTPK-OH; disulfide 8-28, 14-33, 18-35)
- IC50 (human Kv1.3 (CHO)): 0.0411 nM
- IC50 (human Kv1.1 (HEK293)): 0.0139 nM

SMILES: CC[C@H](C)[C@@H]1NC(=O)[C@H](CCCCN)NC(=O)[C@@H](NC(=O)[C@H](CCCCN)NC(=O)[C@@H](NC(=O)[C@H](CC(N)=O)NC(=O)[C@@H](NC(=O)[C@@H](NC(=O)[C@@H](NC(=O)[C@@H](N)CCC(=O)O)C(C)C)[C@@H](C)CC)[C@@H](C)CC)C(C)C)CSSC[C@@H]2NC(=O)[C@H](CCCCN)NC(=O)CNC(=O)[C@H](Cc3ccccc3)NC(=O)[C@H](CCCNC(=N)N)NC(=O)[C@H](CCSC)NC(=O)CNC(=O)[C@H](C)NC(=O)[C@H](CCCCN)NC(=O)[C@H](CCCCN)NC(=O)[C@@H]3CSSC[C@@H](C(=O)N[C@H](C(=O)N4CCC[C@H]4C(=O)N[C@@H](CCCCN)C(=O)O)[C@@H](C)O)NC(=O)[C@H](Cc4c[nH]cn4)NC(=O)[C@H](CSSC[C@H](NC(=O)[C@H](CCC(N)=O)NC(=O)[C@H](CCCNC(=N)N)NC(=O)[C@H](CO)NC1=O)C(=O)N[C@@H](CC(C)C)C(=O)N[C@@H](CCC(=O)O)C(=O)N1CCC[C@H]1C(=O)N3)NC(=O)[C@H](CCCCN)NC(=O)CNC(=O)[C@H](CC(N)=O)NC(=O)[C@H](CCSC)NC2=O [G1E] (H-EVIINVKCKISRQCLEPCKKAGMRFGKCMNGKCHCTPK-OH; disulfide 8-28, 14-33, 18-35)
- IC50 (human Kv1.3 (CHO)): 0.186 nM
- IC50 (human Kv1.1 (HEK293)): 0.051 nM

SMILES: CC[C@H](C)[C@@H]1NC(=O)[C@H](CCCCN)NC(=O)[C@@H](NC(=O)[C@H](CCCCN)NC(=O)[C@@H](NC(=O)[C@H](CC(N)=O)NC(=O)[C@@H](NC(=O)[C@@H](NC(=O)[C@@H](NC(=O)[C@@H](N)CCCNC(=N)N)C(C)C)[C@@H](C)CC)[C@@H](C)CC)C(C)C)CSSC[C@@H]2NC(=O)[C@H](CCCCN)NC(=O)CNC(=O)[C@H](Cc3ccccc3)NC(=O)[C@H](CCCNC(=N)N)NC(=O)[C@H](CCSC)NC(=O)CNC(=O)[C@H](C)NC(=O)[C@H](CCCCN)NC(=O)[C@H](CCCCN)NC(=O)[C@@H]3CSSC[C@@H](C(=O)N[C@H](C(=O)N4CCC[C@H]4C(=O)N[C@@H](CCCCN)C(=O)O)[C@@H](C)O)NC(=O)[C@H](Cc4c[nH]cn4)NC(=O)[C@H](CSSC[C@H](NC(=O)[C@H](CCC(N)=O)NC(=O)[C@H](CCCNC(=N)N)NC(=O)[C@H](CO)NC1=O)C(=O)N[C@@H](CC(C)C)C(=O)N[C@@H](CCC(=O)O)C(=O)N1CCC[C@H]1C(=O)N3)NC(=O)[C@H](CCCCN)NC(=O)CNC(=O)[C@H](CC(N)=O)NC(=O)[C@H](CCSC)NC2=O [G1R] (H-RVIINVKCKISRQCLEPCKKAGMRFGKCMNGKCHCTPK-OH; disulfide 8-28, 14-33, 18-35)
- IC50 (human Kv1.3 (CHO)): 0.0688 nM
- IC50 (human Kv1.1 (HEK293)): 0.00991 nM

SMILES: CC[C@H](C)[C@@H]1NC(=O)[C@H](CCCCN)NC(=O)[C@@H](NC(=O)[C@H](CCCCN)NC(=O)[C@@H](NC(=O)[C@H](CC(N)=O)NC(=O)[C@@H](NC(=O)[C@@H](NC(=O)[C@@H](NC(=O)CN)C(C)C)[C@@H](C)CC)[C@@H](C)CC)C(C)C)CSSC[C@@H]2NC(=O)[C@H](CCCCN)NC(=O)CNC(=O)[C@H](Cc3ccccc3)NC(=O)[C@H](CCCNC(=N)N)NC(=O)[C@H](CCSC)NC(=O)[C@H](C)NC(=O)[C@H](C)NC(=O)[C@H](CCCCN)NC(=O)[C@H](CCCCN)NC(=O)[C@@H]3CSSC[C@@H](C(=O)N[C@H](C(=O)N4CCC[C@H]4C(=O)N[C@@H](CCCCN)C(=O)O)[C@@H](C)O)NC(=O)[C@H](Cc4c[nH]cn4)NC(=O)[C@H](CSSC[C@H](NC(=O)[C@H](CCC(N)=O)NC(=O)[C@H](CCCNC(=N)N)NC(=O)[C@H](CO)NC1=O)C(=O)N[C@@H](CC(C)C)C(=O)N[C@@H](CCC(=O)O)C(=O)N1CCC[C@H]1C(=O)N3)NC(=O)[C@H](CCCCN)NC(=O)CNC(=O)[C@H](CC(N)=O)NC(=O)[C@H](CCSC)NC2=O [G22A] (H-GVIINVKCKISRQCLEPCKKAAMRFGKCMNGKCHCTPK-OH; disulfide 8-28, 14-33, 18-35)
- IC50 (human Kv1.3 (CHO)): > 3 nM
- IC50 (human Kv1.1 (HEK293)): > 3 nM

SMILES: CC[C@H](C)[C@@H]1NC(=O)[C@H](CCCCN)NC(=O)[C@@H](NC(=O)[C@H](CCCCN)NC(=O)[C@@H](NC(=O)[C@H](CC(N)=O)NC(=O)[C@@H](NC(=O)[C@@H](NC(=O)[C@@H](NC(=O)CN)C(C)C)[C@@H](C)CC)[C@@H](C)CC)C(C)C)CSSC[C@@H]2NC(=O)[C@H](CCCCN)NC(=O)CNC(=O)[C@H](Cc3ccccc3)NC(=O)[C@H](CCCNC(=N)N)NC(=O)[C@H](CCSC)NC(=O)[C@H](CCC(=O)O)NC(=O)[C@H](C)NC(=O)[C@H](CCCCN)NC(=O)[C@H](CCCCN)NC(=O)[C@@H]3CSSC[C@@H](C(=O)N[C@H](C(=O)N4CCC[C@H]4C(=O)N[C@@H](CCCCN)C(=O)O)[C@@H](C)O)NC(=O)[C@H](Cc4c[nH]cn4)NC(=O)[C@H](CSSC[C@H](NC(=O)[C@H](CCC(N)=O)NC(=O)[C@H](CCCNC(=N)N)NC(=O)[C@H](CO)NC1=O)C(=O)N[C@@H](CC(C)C)C(=O)N[C@@H](CCC(=O)O)C(=O)N1CCC[C@H]1C(=O)N3)NC(=O)[C@H](CCCCN)NC(=O)CNC(=O)[C@H](CC(N)=O)NC(=O)[C@H](CCSC)NC2=O [G22E] (H-GVIINVKCKISRQCLEPCKKAEMRFGKCMNGKCHCTPK-OH; disulfide 8-28, 14-33, 18-35)
- IC50 (human Kv1.3 (CHO)): 0.0139 nM
- IC50 (human Kv1.1 (HEK293)): 0.00256 nM

SMILES: CC[C@H](C)[C@@H]1NC(=O)[C@H](CCCCN)NC(=O)[C@@H](NC(=O)[C@H](CCCCN)NC(=O)[C@@H](NC(=O)[C@H](CC(N)=O)NC(=O)[C@@H](NC(=O)[C@@H](NC(=O)[C@@H](NC(=O)CN)C(C)C)[C@@H](C)CC)[C@@H](C)CC)C(C)C)CSSC[C@@H]2NC(=O)[C@H](CCCCN)NC(=O)CNC(=O)[C@H](Cc3ccccc3)NC(=O)[C@H](CCCNC(=N)N)NC(=O)[C@H](CCSC)NC(=O)[C@H](CCCNC(=N)N)NC(=O)[C@H](C)NC(=O)[C@H](CCCCN)NC(=O)[C@H](CCCCN)NC(=O)[C@@H]3CSSC[C@@H](C(=O)N[C@H](C(=O)N4CCC[C@H]4C(=O)N[C@@H](CCCCN)C(=O)O)[C@@H](C)O)NC(=O)[C@H](Cc4c[nH]cn4)NC(=O)[C@H](CSSC[C@H](NC(=O)[C@H](CCC(N)=O)NC(=O)[C@H](CCCNC(=N)N)NC(=O)[C@H](CO)NC1=O)C(=O)N[C@@H](CC(C)C)C(=O)N[C@@H](CCC(=O)O)C(=O)N1CCC[C@H]1C(=O)N3)NC(=O)[C@H](CCCCN)NC(=O)CNC(=O)[C@H](CC(N)=O)NC(=O)[C@H](CCSC)NC2=O [G22R] (H-GVIINVKCKISRQCLEPCKKARMRFGKCMNGKCHCTPK-OH; disulfide 8-28, 14-33, 18-35)
- IC50 (human Kv1.3 (CHO)): 0.0237 nM
- IC50 (human Kv1.1 (HEK293)): 0.00349 nM

SMILES: CC[C@H](C)[C@@H]1NC(=O)[C@H](CCCCN)NC(=O)[C@@H](NC(=O)[C@H](CCCCN)NC(=O)[C@@H](NC(=O)[C@H](CC(N)=O)NC(=O)[C@@H](NC(=O)[C@@H](NC(=O)[C@@H](NC(=O)CN)C(C)C)[C@@H](C)CC)[C@@H](C)CC)C(C)C)CSSC[C@@H]2NC(=O)[C@H](CCCCN)NC(=O)[C@H](C)NC(=O)[C@H](Cc3ccccc3)NC(=O)[C@H](CCCNC(=N)N)NC(=O)[C@H](CCSC)NC(=O)CNC(=O)[C@H](C)NC(=O)[C@H](CCCCN)NC(=O)[C@H](CCCCN)NC(=O)[C@@H]3CSSC[C@@H](C(=O)N[C@H](C(=O)N4CCC[C@H]4C(=O)N[C@@H](CCCCN)C(=O)O)[C@@H](C)O)NC(=O)[C@H](Cc4c[nH]cn4)NC(=O)[C@H](CSSC[C@H](NC(=O)[C@H](CCC(N)=O)NC(=O)[C@H](CCCNC(=N)N)NC(=O)[C@H](CO)NC1=O)C(=O)N[C@@H](CC(C)C)C(=O)N[C@@H](CCC(=O)O)C(=O)N1CCC[C@H]1C(=O)N3)NC(=O)[C@H](CCCCN)NC(=O)CNC(=O)[C@H](CC(N)=O)NC(=O)[C@H](CCSC)NC2=O [G26A] (H-GVIINVKCKISRQCLEPCKKAGMRFAKCMNGKCHCTPK-OH; disulfide 8-28, 14-33, 18-35)
- IC50 (human Kv1.3 (CHO)): 0.711 nM
- IC50 (human Kv1.1 (HEK293)): 0.733 nM
